Experimental data taken from PubChem BioAssay (NCI).
Several values for one entry are separate records, joined by “and”; a condition that tells them apart may be missing. Equal values may be shown once.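 Results reflect a 48-hour exposure of cells in 96-well plates to compound at five concentrations. Here, GI50 denotes the concentration required for 50% inhibition of growth. TGI: total growth inhibition.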

Tests used:
Experiment in all cases: NCI anticancer screen, dose series, 48 h
NCI/ADR-RES ovarian = system: NCI/ADR-RES ovarian
DMS 114 small cell lung = system: DMS 114 small cell lung
LXFL 529 NSCLC = system: LXFL 529 NSCLC
M19-MEL melanoma = system: M19-MEL melanoma
SNB-78 CNS = system: SNB-78 CNS
XF 498 CNS = system: XF 498 CNS
HOP-18 NSCLC = system: HOP-18 NSCLC
MDA-N = system: MDA-N

C=C1C(=O)O[C@H]2[C@H]1CC/C(COC(=O)NCc1ccc(Cn3c(=O)sn(CCCI)c3=O)cc1)=C\CC[C@@]1(C)O[C@@H]21
GI50 (NCI/ADR-RES ovarian): 28.1 µM | TGI (NCI/ADR-RES ovarian): > 100 µM

O=C(NC(=Nc1ccccc1)SCCSC(=Nc1ccccc1)NC(=O)c1ccccc1)c1ccccc1
TGI (DMS 114 small cell lung): > 100 µM | TGI (LXFL 529 NSCLC): > 100 µM | TGI (M19-MEL melanoma): > 100 µM | TGI (SNB-78 CNS): > 100 µM | TGI (XF 498 CNS): > 100 µM

COc1cc(CC2c3cc(OC)c(OC)cc3CCN2C)c(C(=O)O)cc1OC (centres undefined)
TGI (DMS 114 small cell lung): > 100 µM | TGI (HOP-18 NSCLC): > 100 µM | TGI (LXFL 529 NSCLC): > 100 µM | TGI (M19-MEL melanoma): > 100 µM | TGI (SNB-78 CNS): > 100 µM | TGI (XF 498 CNS): > 100 µM

CCC[CH2][Sn]1([CH2]CCC)[O]C(=O)c2cccnc2[S]1
GI50 (DMS 114 small cell lung): 1.64 µM | TGI (DMS 114 small cell lung): 3.83 µM | GI50 (LXFL 529 NSCLC): 1.33 µM | TGI (LXFL 529 NSCLC): 2.98 µM | GI50 (M19-MEL melanoma): 3.87 µM | TGI (M19-MEL melanoma): 15.4 µM | GI50 (SNB-78 CNS): 1.88 µM | TGI (SNB-78 CNS): 5.76 µM | GI50 (XF 498 CNS): 2 µM | TGI (XF 498 CNS): 3.5 µM

CC1(C)N=C(N)N=C(N)N1c1cccc(CC(=O)Nc2ccccc2)c1
GI50 (NCI/ADR-RES ovarian): > 100 µM | TGI (NCI/ADR-RES ovarian): > 100 µM

C=C(C)[C@@H]1CC[C@]2(C(=O)OC)CC[C@]3(C)[C@H](CC[C@@H]4[C@@]5(C)CC/C(=N\OCCC(=NCCC#N)NOCCC#N)C(C)(C)[C@@H]5CC[C@]43C)[C@@H]12
GI50 (NCI/ADR-RES ovarian): 13.5 µM | TGI (NCI/ADR-RES ovarian): > 50 µM

Cc1n[nH]c(C)c1-c1c(C)n[nH]c1C
GI50 (NCI/ADR-RES ovarian): 2.19 µM | TGI (NCI/ADR-RES ovarian): 6.16 µM

CN(C)CCCn1c2c(c3ccc(N4CCNCC4)cc3c1=O)C(=O)c1ccccc1-2
GI50 (NCI/ADR-RES ovarian): 1.16 µM | TGI (NCI/ADR-RES ovarian): 2.83 µM

CC1SC(c2ccc(OCc3ccccc3)cc2)N(NC(=O)C(O)(c2ccccc2)c2ccccc2)C1=O (centres undefined)
GI50 (NCI/ADR-RES ovarian): 3.72 µM | TGI (NCI/ADR-RES ovarian): 17.8 µM

Nc1c2ccccc2nc2ccccc12
GI50 (NCI/ADR-RES ovarian): 1.44 µM and 1.48 µM | TGI (NCI/ADR-RES ovarian): 5.35 µM and 6.21 µM

C/C=C/C(C/C=C(\C)CO[Si](C)(C)C(C)(C)C)O[Si](C)(C)C(C)(C)C (centres undefined)
TGI (MDA-N): > 100 µM | TGI (NCI/ADR-RES ovarian): > 100 µM

CCc1ccc2cc3c(ccc4ccccc43)c3c2c1CC3
GI50 (NCI/ADR-RES ovarian): > 100 µM | TGI (NCI/ADR-RES ovarian): > 100 µM

CCN(CC)CCN1C(=O)c2cccc3cc(N)cc(c23)C1=O
TGI (MDA-N): 23.8 µM | TGI (NCI/ADR-RES ovarian): 58.8 µM

C/C(=N\NC(N)=O)C(CN1CCOCC1)C(c1ccccc1)c1c(O)c2ccccc2oc1=O (centres undefined)
TGI (MDA-N): > 100 µM | TGI (NCI/ADR-RES ovarian): > 100 µM

COc1cccc(-c2cc(-c3ccc(Nc4nc(Nc5ccc(Cl)cc5)nc(Nc5ccc(Cl)cc5)n4)cc3)nc(N)c2C#N)c1
GI50 (NCI/ADR-RES ovarian): 14.7 µM | TGI (NCI/ADR-RES ovarian): > 100 µM

CCN(CC)c1ccc(C=C2C(=O)NC(=S)NC2=O)cc1
GI50 (NCI/ADR-RES ovarian): 3.39 µM | TGI (NCI/ADR-RES ovarian): 12.2 µM

COc1cnc2c(c1)C(=O)c1c-2n(CCCN2CCNCC2)c(=O)c2cc(F)ccc12
GI50 (NCI/ADR-RES ovarian): 0.865 µM | TGI (NCI/ADR-RES ovarian): 4.43 µM

CCCCP1(=O)C=CC(Cl)=C(C)C1 (centres undefined)
TGI (HOP-18 NSCLC): > 100 µM | TGI (LXFL 529 NSCLC): > 100 µM | TGI (M19-MEL melanoma): > 100 µM | TGI (SNB-78 CNS): > 100 µM

C=CN(C(=O)N1CCN(c2cc3c(cc2F)c(=O)c(C(=O)O)cn3C2CC2)CC1)c1nc(-c2ccc(C)cc2)cs1
GI50 (NCI/ADR-RES ovarian): 2.67 µM | TGI (NCI/ADR-RES ovarian): 7.24 µM

CCCN1CCCC(c2ccc(Nc3nc(Nc4cc(F)ccc4C(N)=O)c4cc[nH]c4n3)c(OC)c2)C1 (centres undefined)
GI50 (NCI/ADR-RES ovarian): 3.57 µM | TGI (NCI/ADR-RES ovarian): 9.92 µM

N=C(N)c1ccc(-c2ccc(-c3cccs3)s2)cc1F
GI50 (NCI/ADR-RES ovarian): 2 µM | TGI (NCI/ADR-RES ovarian): 4.3 µM

O=C(Nc1cc(Cl)ccc1Cl)c1cc2ccccc2oc1=O
TGI (DMS 114 small cell lung): > 100 µM | TGI (HOP-18 NSCLC): 83 µM | TGI (M19-MEL melanoma): > 100 µM

Fc1cnccc1-c1nc2ccc3[nH]ncc3c2c2c1CCCC2
GI50 (NCI/ADR-RES ovarian): 2.41 µM | TGI (NCI/ADR-RES ovarian): > 100 µM

O=C1C(=C2C(=O)c3ccccc3[N+]2=O)N([O-])c2ccccc21
TGI (DMS 114 small cell lung): 33.9 µM | TGI (HOP-18 NSCLC): 71.5 µM | TGI (LXFL 529 NSCLC): 43.5 µM | TGI (M19-MEL melanoma): 68.4 µM | TGI (SNB-78 CNS): > 100 µM

CC1CC(=O)C(CC(=O)O)[C@H]1C(C(=O)C(=O)Nc1cc(Cl)ccc1Cl)[N+](=O)[O-] (some centres undefined)
TGI (DMS 114 small cell lung): > 100 µM | TGI (HOP-18 NSCLC): > 100 µM | TGI (M19-MEL melanoma): > 100 µM | TGI (XF 498 CNS): > 100 µM

CCCCc1c2c([n+]([O-])c3c1CCCC3)CCCC2
TGI (DMS 114 small cell lung): > 100 µM | TGI (LXFL 529 NSCLC): > 100 µM | TGI (M19-MEL melanoma): > 100 µM | TGI (XF 498 CNS): > 100 µM

Cc1cc(C)c(CNC(=O)c2cc(Cl)c3c(c2C)O[C@@](C)(C2CCC(N(C)C)CC2)O3)c(=O)[nH]1 (some centres undefined)
GI50 (NCI/ADR-RES ovarian): > 100 µM | TGI (NCI/ADR-RES ovarian): > 100 µM
